The values below are quoted from earlier work in patent publication US20190054051A1, “DOPA Formulations for Treatments of Parkinson's Disease” (The Board of Trustees of the Leland Stanford Junior …, priority 2017, published 2019).

For data set [1] the following is noted: cited from earlier work.
The next data set relates to animal models of PD. The following applies: previously reported; cited from earlier work.

As to `C[C@@](Cc1ccc(O)c(O)c1)(NN)C(=O)O` [Carbidopa, N-amino-α-methyl-3-hydroxy-L-tyrosine monohydrate], the solubility in water result in data set [1] is listed as “slightly soluble in water”.
Take `NC(N)=Nc1nc(CSCCC(N)=NS(N)(=O)=O)cs1` [famotidine]: in the data set with animal models of PD, the “L-DOPA induced dyskinesia (dyskinetic behavior following DOPA treatment)” value is reported as “decreased the dyskinetic behavior”.
